Source: patent US20210045385A1, “PYRIDAZINONE-SUBSTITUTED KETOXIMES AS HERBICIDES” (FMC Corporation, priority 2018, published 2021)

Columns and labels:
Assay type in all cases: in vivo
[1] = test system: Italian ryegrass (Lolium mutiflorum); experiment: Test C preemergence, visual plant response rating; settings: Test C, 0 is no effect, 100 is complete control
In short: (§1)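 Visual injury on a 0 (no effect) to 100 (complete control) scale versus untreated controls, scored approximately 10 d after treatment under greenhouse conditions. Treatments used surfactant-containing non-phytotoxic solvent formulations, sprayed onto loam–sand soil preemergence or onto one- to two-leaf plants 2–10 cm tall postemergence.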

[2] = test system: barnyardgrass (Echinochloa crus-galli); experiment: Test C preemergence, visual plant response rating; settings: Test C, 0 is no effect, 100 is complete control
In short: as §1

[3] = test system: foxtail, giant (giant foxtail, Setaria faberi); experiment: Test C preemergence, visual plant response rating; settings: Test C, 0 is no effect, 100 is complete control
In short: as §1

kochia (Bassia scoparia) [4] = experiment: Test C preemergence, visual plant response rating; settings: Test C, 0 is no effect, 100 is complete control
In short: as §1

[5] = test system: pigweed (Amaranthus retroflexus); experiment: Test C preemergence, visual plant response rating; settings: Test C, 0 is no effect, 100 is complete control
In short: as §1

[6] = test system: ragweed (common ragweed, Ambrosia artemisiifolia); experiment: Test C preemergence, visual plant response rating; settings: Test C, 0 is no effect, 100 is complete control
In short: as §1

[7] = test system: Italian ryegrass (Lolium mutiflorum); experiment: Test C postemergence, visual plant response rating
In short: as §1

[8] = test system: barnyardgrass (Echinochloa crus-galli); experiment: Test C postemergence, visual plant response rating
In short: as §1

[9] = test system: blackgrass (Alopecurus myosuroides); experiment: Test C postemergence, visual plant response rating
In short: as §1

corn (Zea mays) = experiment: Test C postemergence, visual plant response rating
In short: as §1

[10] = test system: foxtail, giant (giant foxtail, Setaria faberi); experiment: Test C postemergence, visual plant response rating
In short: as §1

[11] = test system: galium (catchweed bedstraw, Galium aparine); experiment: Test C postemergence, visual plant response rating
In short: as §1

kochia (Bassia scoparia) [12] = experiment: Test C postemergence, visual plant response rating
In short: as §1

[13] = test system: pigweed (Amaranthus retroflexus); experiment: Test C postemergence, visual plant response rating
In short: as §1

[14] = test system: ragweed (common ragweed, Ambrosia artemisiifolia); experiment: Test C postemergence, visual plant response rating
In short: as §1

[15] = test system: wheat (Triticum aestivum); experiment: Test C postemergence, visual plant response rating
In short: as §1

[16] = test system: barnyardgrass (Echinochloa crus-galli); experiment: Test D flooded paddy test, visual plant response rating; settings: 250 g ai/ha, scale 0 to 100 (0 no effect, 100 complete control), 13 to 15 d
In short: (§2)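 Rating is visual, on a 0 (no effect) to 100 (complete control) scale versus controls, taken 13 to 15 d after treatment in a greenhouse. Treatment went into paddy water kept 3 cm above the soil surface, with plants at the 2-leaf stage.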

[17] = test system: duck salad (Heteranthera limosa); experiment: as above; settings: 250 g ai/ha, scale 0 to 100 (0 no effect, 100 complete control), 13 to 15 d
In short: as §2

rice (Oryza sativa) = experiment: as above; settings: 250 g ai/ha, scale 0 to 100 (0 no effect, 100 complete control), 13 to 15 d
In short: as §2

[18] = test system: sedge umbrella (small-flower umbrella sedge, Cyperus difformis); experiment: as above; settings: 250 g ai/ha, scale 0 to 100 (0 no effect, 100 complete control), 13 to 15 d
In short: as §2

[19] = Test C, postemergence, 125 g ai/ha

SMILES | Ryegrass, Italian plant response rating (0 to 100 scale) ([1]; 31 g ai/ha) | Ryegrass, Italian plant response rating (0 to 100 scale) ([1]; 125 g ai/ha) | Barnyardgrass plant response rating (0 to 100 scale) ([2]; 31 g ai/ha) | Barnyardgrass plant response rating (0 to 100 scale) ([2]; 125 g ai/ha) | Foxtail, Giant plant response rating (0 to 100 scale) ([3]; 31 g ai/ha) | Foxtail, Giant plant response rating (0 to 100 scale) ([3]; 125 g ai/ha) | Kochia plant response rating (0 to 100 scale) (kochia (Bassia scoparia) [4]; 31 g ai/ha) | Kochia plant response rating (0 to 100 scale) (kochia (Bassia scoparia) [4]; 125 g ai/ha) | Pigweed plant response rating (0 to 100 scale) ([5]; 31 g ai/ha) | Pigweed plant response rating (0 to 100 scale) ([5]; 125 g ai/ha) | Ragweed plant response rating (0 to 100 scale) ([6]; 31 g ai/ha) | Ragweed plant response rating (0 to 100 scale) ([6]; 125 g ai/ha) | Ryegrass, Italian plant response rating (0 to 100 scale) ([7]; Postemergence, 31 g ai/ha) | Ryegrass, Italian plant response rating (0 to 100 scale) [7, 19] | Barnyardgrass plant response rating (0 to 100 scale) ([8]; Postemergence, 31 g ai/ha) | Barnyardgrass plant response rating (0 to 100 scale) [8, 19] | Blackgrass plant response rating (0 to 100 scale) ([9]; Postemergence, 31 g ai/ha) | Blackgrass plant response rating (0 to 100 scale) [9, 19] | Corn plant response rating (0 to 100 scale) (corn (Zea mays); Postemergence, 31 g ai/ha) | Corn plant response rating (0 to 100 scale) (corn (Zea mays); [19]) | other results
CCO/N=C(/c1c(O)c(C)nn(C)c1=O)c1cccc2cc(Cl)ccc12 [Compound 244] | 0 | 20 | 40 | 70 | 90 | 100 | 0 | 0 | 50 | 90 | 10 | 20 | 0 | 10 | 30 | 50 | 40 | 70 | 10 | 30 | Foxtail, Giant plant response rating (0 to 100 scale) ([10]; Postemergence, 31 g ai/ha): 80; Foxtail, Giant plant response rating (0 to 100 scale) [10, 19]: 80; Galium plant response rating (0 to 100 scale) ([11]; Postemergence, 31 g ai/ha): 80; Galium plant response rating (0 to 100 scale) [11, 19]: 90; Kochia plant response rating (0 to 100 scale) (kochia (Bassia scoparia) [12]; Postemergence, 31 g ai/ha): 20; Kochia plant response rating (0 to 100 scale) (kochia (Bassia scoparia) [12]; [19]): 20; Pigweed plant response rating (0 to 100 scale) ([13]; Postemergence, 31 g ai/ha): 80; Pigweed plant response rating (0 to 100 scale) [13, 19]: 90; Ragweed plant response rating (0 to 100 scale) ([14]; Postemergence, 31 g ai/ha): 90; Ragweed plant response rating (0 to 100 scale) [14, 19]: 40; Wheat plant response rating (0 to 100 scale) ([15]; Postemergence, 31 g ai/ha): 0; Wheat plant response rating (0 to 100 scale) [15, 19]: 0; Plant response rating, Barnyardgrass (Flood) [16]: 10; Plant response rating, Ducksalad (Flood) [17]: 50; Plant response rating, Rice (Flood) (rice (Oryza sativa)): 15; Plant response rating, Sedge, Umbrella (Flood) [18]: 45
Cc1nn(C)c(=O)c(/C(=N/OC(C)C)c2cccc3cc(Cl)ccc23)c1O [Compound 245] | 0 | 0 | 30 | 70 | 60 | 90 | 0 | 0 | 50 | 100 | 10 | 40 | 0 | 0 | 30 | 50 | 0 | 0 | 30 | 30 | Foxtail, Giant plant response rating (0 to 100 scale) ([10]; Postemergence, 31 g ai/ha): 30; Foxtail, Giant plant response rating (0 to 100 scale) [10, 19]: 80; Galium plant response rating (0 to 100 scale) ([11]; Postemergence, 31 g ai/ha): 70; Galium plant response rating (0 to 100 scale) [11, 19]: 90; Kochia plant response rating (0 to 100 scale) (kochia (Bassia scoparia) [12]; Postemergence, 31 g ai/ha): 0; Kochia plant response rating (0 to 100 scale) (kochia (Bassia scoparia) [12]; [19]): 20; Pigweed plant response rating (0 to 100 scale) ([13]; Postemergence, 31 g ai/ha): 70; Pigweed plant response rating (0 to 100 scale) [13, 19]: 90; Ragweed plant response rating (0 to 100 scale) ([14]; Postemergence, 31 g ai/ha): 20; Ragweed plant response rating (0 to 100 scale) [14, 19]: 70; Wheat plant response rating (0 to 100 scale) ([15]; Postemergence, 31 g ai/ha): 0; Wheat plant response rating (0 to 100 scale) [15, 19]: 0; Plant response rating, Barnyardgrass (Flood) [16]: 15; Plant response rating, Ducksalad (Flood) [17]: 30; Plant response rating, Rice (Flood) (rice (Oryza sativa)): 25; Plant response rating, Sedge, Umbrella (Flood) [18]: 50
C=CCO/N=C(/c1c(O)c(C)nn(C)c1=O)c1cccc2cc(Cl)ccc12 [Compound 246] | 30 | 60 | 60 | 80 | 80 | 80 | 0 | 0 | 90 | 100 | 100 | 90 | 0 | 30 | 40 | 70 | 50 | 70 | 20 | 10 | Foxtail, Giant plant response rating (0 to 100 scale) ([10]; Postemergence, 31 g ai/ha): 70; Foxtail, Giant plant response rating (0 to 100 scale) [10, 19]: 70; Galium plant response rating (0 to 100 scale) ([11]; Postemergence, 31 g ai/ha): 80; Galium plant response rating (0 to 100 scale) [11, 19]: 90; Kochia plant response rating (0 to 100 scale) (kochia (Bassia scoparia) [12]; Postemergence, 31 g ai/ha): 0; Kochia plant response rating (0 to 100 scale) (kochia (Bassia scoparia) [12]; [19]): 20; Pigweed plant response rating (0 to 100 scale) ([13]; Postemergence, 31 g ai/ha): 70; Pigweed plant response rating (0 to 100 scale) [13, 19]: 80; Ragweed plant response rating (0 to 100 scale) ([14]; Postemergence, 31 g ai/ha): 80; Ragweed plant response rating (0 to 100 scale) [14, 19]: 100; Wheat plant response rating (0 to 100 scale) ([15]; Postemergence, 31 g ai/ha): 0; Wheat plant response rating (0 to 100 scale) [15, 19]: 0; Plant response rating, Barnyardgrass (Flood) [16]: 90; Plant response rating, Ducksalad (Flood) [17]: 95; Plant response rating, Rice (Flood) (rice (Oryza sativa)): 90; Plant response rating, Sedge, Umbrella (Flood) [18]: 100
C#CCO/N=C(/c1cccc(/C=C/Cl)c1)c1c(O)c(C)nn(C)c1=O [Compound 253] | 0 | 30 | 0 | 0 | 0 | 10 | 0 | 0 | 0 | 80 | 0 | 0 | 10 | 60 | 10 | 40 | 20 | 60 | 0 | 0 | Foxtail, Giant plant response rating (0 to 100 scale) ([10]; Postemergence, 31 g ai/ha): 20; Foxtail, Giant plant response rating (0 to 100 scale) [10, 19]: 50; Galium plant response rating (0 to 100 scale) ([11]; Postemergence, 31 g ai/ha): 30; Galium plant response rating (0 to 100 scale) [11, 19]: 50; Kochia plant response rating (0 to 100 scale) (kochia (Bassia scoparia) [12]; Postemergence, 31 g ai/ha): 20; Kochia plant response rating (0 to 100 scale) (kochia (Bassia scoparia) [12]; [19]): 60; Pigweed plant response rating (0 to 100 scale) ([13]; Postemergence, 31 g ai/ha): 50; Pigweed plant response rating (0 to 100 scale) [13, 19]: 70; Ragweed plant response rating (0 to 100 scale) ([14]; Postemergence, 31 g ai/ha): 30; Ragweed plant response rating (0 to 100 scale) [14, 19]: 40; Wheat plant response rating (0 to 100 scale) ([15]; Postemergence, 31 g ai/ha): 0; Wheat plant response rating (0 to 100 scale) [15, 19]: 30; Plant response rating, Barnyardgrass (Flood) [16]: 0; Plant response rating, Ducksalad (Flood) [17]: 0; Plant response rating, Rice (Flood) (rice (Oryza sativa)): 0; Plant response rating, Sedge, Umbrella (Flood) [18]: 0
